Test results as given in ChEMBL document CHEMBL5241098, “Progress in the development of small molecular inhibitors of the Bruton's tyrosine kinase (BTK) as a promising cancer therapy” (Bioorg Med Chem, 2021).
pEC50, pIC50: −log10 of the molar value.

Assays:
[1] = biological target: Tyrosine-protein kinase Lck (Homo sapiens, UniProt P06239); experiment: Inhibition of LCK (unknown origin)
[2] = Inhibition of CDK2/Cyclin E (unknown origin) in the presence of ATP; set-up: species or system Homo sapiens
[3] = biological target: T1, Tyrosine-protein kinase BTK (Homo sapiens, UniProt Q06187); experiment: Inhibition of BTK (unknown origin) incubated for 40 mins in the presence of ATP by scintillation based radiometric protein kinase assay
[4] = Antiproliferative activity against human MINO cells assessed as reduction in cell viability incubated for 72 hrs by CellTiter Glo luminescence assay
JeKo-1 = experiment: Antiproliferative activity against BTK knockout human JeKo-1 cells assessed as reduction in cell viability incubated for 72 hrs by CellTiter Glo luminescence assay; settings: JeKo-1, 72 h
Z-138 = experiment: Antiproliferative activity against human Z138 cells assessed as reduction in cell viability incubated for 72 hrs by CellTiter Glo luminescence assay; settings: Z-138, 72 h
Maver1 = experiment: Antiproliferative activity against human MAVER-1 cells assessed as reduction in cell viability incubated for 72 hrs by CellTiter Glo luminescence assay; settings: Maver1, 72 h
[5] = biological target: T2, Protein cereblon/Tyrosine-protein kinase BTK (Homo sapiens, UniProt Q06187+Q96SW2, C481S); experiment: PROTAC activity at CRBN/BTK C481S mutant in human HBL1 cells assessed as decrease in BTK C481S level incubated for 36 hrs by Western blot analysis; type: cell-based
[6] = biological target: T3, Protein cereblon/Tyrosine-protein kinase BTK (Homo sapiens, UniProt Q06187+Q96SW2); experiment: PROTAC activity at CRBN/BTK in human NAMALVA cells assessed as decrease in BTK level incubated for 24 hrs by Western blot analysis; type: cell-based
Target sequence in this assay (Q06187 whole entry): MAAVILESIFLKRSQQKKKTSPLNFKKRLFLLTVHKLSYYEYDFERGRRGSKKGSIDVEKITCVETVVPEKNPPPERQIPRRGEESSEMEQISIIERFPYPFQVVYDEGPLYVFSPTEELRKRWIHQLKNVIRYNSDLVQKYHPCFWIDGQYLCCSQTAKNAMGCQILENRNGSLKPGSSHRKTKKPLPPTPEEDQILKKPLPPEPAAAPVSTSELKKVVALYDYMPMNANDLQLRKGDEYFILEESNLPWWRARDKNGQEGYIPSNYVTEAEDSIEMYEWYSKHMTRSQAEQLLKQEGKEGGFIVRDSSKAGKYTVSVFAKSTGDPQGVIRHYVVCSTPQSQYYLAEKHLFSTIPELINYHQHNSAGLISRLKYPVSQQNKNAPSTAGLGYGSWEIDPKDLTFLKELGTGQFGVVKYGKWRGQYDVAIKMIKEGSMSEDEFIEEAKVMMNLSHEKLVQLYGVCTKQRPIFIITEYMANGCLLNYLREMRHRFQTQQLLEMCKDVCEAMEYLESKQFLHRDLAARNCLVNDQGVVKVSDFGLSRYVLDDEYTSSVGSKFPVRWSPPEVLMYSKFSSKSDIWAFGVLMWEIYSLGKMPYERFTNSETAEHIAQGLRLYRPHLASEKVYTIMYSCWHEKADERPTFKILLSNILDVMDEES
Target sequence in this assay (Q96SW2 whole entry): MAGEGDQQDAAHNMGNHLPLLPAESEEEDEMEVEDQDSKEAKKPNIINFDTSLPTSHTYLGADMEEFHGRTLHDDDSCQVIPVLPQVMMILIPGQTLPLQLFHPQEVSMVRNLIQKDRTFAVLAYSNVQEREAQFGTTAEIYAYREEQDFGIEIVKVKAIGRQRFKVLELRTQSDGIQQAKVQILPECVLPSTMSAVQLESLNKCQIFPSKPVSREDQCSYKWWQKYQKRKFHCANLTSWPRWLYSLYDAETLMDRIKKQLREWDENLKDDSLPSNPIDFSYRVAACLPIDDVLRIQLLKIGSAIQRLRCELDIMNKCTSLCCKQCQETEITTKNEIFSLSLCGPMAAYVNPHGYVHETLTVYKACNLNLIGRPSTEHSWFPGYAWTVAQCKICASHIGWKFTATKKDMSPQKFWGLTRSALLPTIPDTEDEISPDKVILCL

[7] = biological target: T3, Protein cereblon/Tyrosine-protein kinase BTK; experiment: PROTAC activity at CRBN/BTK in human NAMALVA cells assessed as decrease in BTK level by measuring maximal efficacy incubated for 24 hrs by Western blot analysis relative to control; type: cell-based
Target sequence in this assay (Q06187 2-659 limits assumed): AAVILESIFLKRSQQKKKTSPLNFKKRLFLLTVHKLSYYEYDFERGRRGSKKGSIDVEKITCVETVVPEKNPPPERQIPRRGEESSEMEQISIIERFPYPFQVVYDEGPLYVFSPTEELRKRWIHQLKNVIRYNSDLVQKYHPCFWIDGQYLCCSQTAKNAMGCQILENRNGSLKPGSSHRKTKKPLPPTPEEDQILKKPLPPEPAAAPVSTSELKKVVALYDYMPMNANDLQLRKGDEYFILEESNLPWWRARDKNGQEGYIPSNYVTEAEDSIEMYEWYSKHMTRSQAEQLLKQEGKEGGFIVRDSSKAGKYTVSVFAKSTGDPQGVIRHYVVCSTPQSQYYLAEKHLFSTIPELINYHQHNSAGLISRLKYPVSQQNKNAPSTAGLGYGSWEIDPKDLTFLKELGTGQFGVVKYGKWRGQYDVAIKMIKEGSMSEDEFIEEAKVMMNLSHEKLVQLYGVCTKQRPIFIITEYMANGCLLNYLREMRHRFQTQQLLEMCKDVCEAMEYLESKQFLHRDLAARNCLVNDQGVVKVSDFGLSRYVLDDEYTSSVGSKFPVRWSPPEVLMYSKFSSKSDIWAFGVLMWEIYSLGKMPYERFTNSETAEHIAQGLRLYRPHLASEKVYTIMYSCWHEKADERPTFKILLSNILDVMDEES
Target sequence in this assay (Q96SW2 whole entry partner): as the sequence (Q96SW2 whole entry) above

Raji = experiment: Antiproliferative activity against human Raji cells assessed as reduction in cell viability incubated for 72 hrs by CCK-8 assay
Ramos [8] = experiment: Antiproliferative activity against human Ramos cells assessed as reduction in cell viability incubated for 72 hrs by CCK-8 assay
NAMALVA = experiment: Antiproliferative activity against human NAMALVA cells assessed as reduction in cell viability incubated for 72 hrs by CCK-8 assay
[9] = biological target: T4, Receptor-type tyrosine-protein kinase FLT3 (Homo sapiens, UniProt P36888); experiment: Inhibition of FLT3 (unknown origin)
T4 sequence (P36888 whole entry): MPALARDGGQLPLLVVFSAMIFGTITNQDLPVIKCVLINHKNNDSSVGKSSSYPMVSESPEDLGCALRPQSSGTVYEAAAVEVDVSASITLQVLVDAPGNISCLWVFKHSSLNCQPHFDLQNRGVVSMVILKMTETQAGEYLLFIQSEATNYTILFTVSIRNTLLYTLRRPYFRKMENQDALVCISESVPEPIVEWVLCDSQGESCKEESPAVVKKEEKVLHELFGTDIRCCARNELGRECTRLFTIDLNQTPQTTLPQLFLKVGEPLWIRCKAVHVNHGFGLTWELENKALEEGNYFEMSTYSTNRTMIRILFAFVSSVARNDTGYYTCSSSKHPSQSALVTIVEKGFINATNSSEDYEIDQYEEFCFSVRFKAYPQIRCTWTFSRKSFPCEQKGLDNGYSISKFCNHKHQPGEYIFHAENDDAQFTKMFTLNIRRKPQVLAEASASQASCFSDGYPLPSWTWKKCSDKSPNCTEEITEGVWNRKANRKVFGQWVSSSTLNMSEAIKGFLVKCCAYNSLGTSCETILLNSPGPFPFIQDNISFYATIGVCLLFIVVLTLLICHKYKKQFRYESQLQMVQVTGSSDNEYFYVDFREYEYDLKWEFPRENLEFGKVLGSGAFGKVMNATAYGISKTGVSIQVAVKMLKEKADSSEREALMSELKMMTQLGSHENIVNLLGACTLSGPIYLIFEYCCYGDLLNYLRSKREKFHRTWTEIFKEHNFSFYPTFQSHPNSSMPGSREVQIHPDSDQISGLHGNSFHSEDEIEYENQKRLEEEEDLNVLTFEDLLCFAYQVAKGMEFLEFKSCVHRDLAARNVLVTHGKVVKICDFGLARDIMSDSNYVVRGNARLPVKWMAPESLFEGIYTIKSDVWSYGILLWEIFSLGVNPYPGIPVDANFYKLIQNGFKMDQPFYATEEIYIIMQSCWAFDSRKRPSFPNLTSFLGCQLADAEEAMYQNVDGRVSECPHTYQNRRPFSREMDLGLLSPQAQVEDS

[10] = biological target: T3, Protein cereblon/Tyrosine-protein kinase BTK; experiment: PROTAC activity at CRBN/BTK in human MINO cells assessed as decrease in BTK level incubated for 24 hrs by Western blot analysis; type: cell-based
Target sequence in this assay (Q06187 whole entry): as the sequence (Q06187 whole entry) above
Target sequence in this assay (Q96SW2 whole entry): as the sequence (Q96SW2 whole entry) above

[11] = biological target: T3, Protein cereblon/Tyrosine-protein kinase BTK; experiment: PROTAC activity at CRBN/BTK in human MINO cells assessed as decrease in BTK level by measuring maximal efficacy incubated for 24 hrs by Western blot analysis relative to control; type: cell-based
Target sequence in this assay (Q06187 2-659 limits assumed): as the sequence (Q06187 2-659 limits assumed) above
Target sequence in this assay (Q96SW2 whole entry partner): as the sequence (Q96SW2 whole entry) above

[12] = biological target: T1, Tyrosine-protein kinase BTK; experiment: Inhibition of BTK (unknown origin)
OCI-Ly7 = experiment: Growth inhibition of human OCILY7 cells; type: functional
[13] = biological target: T5, Tyrosine-protein kinase JAK3 (Homo sapiens, UniProt P52333); experiment: Inhibition of JAK3 (unknown origin)
T5 sequence (P52333 whole entry): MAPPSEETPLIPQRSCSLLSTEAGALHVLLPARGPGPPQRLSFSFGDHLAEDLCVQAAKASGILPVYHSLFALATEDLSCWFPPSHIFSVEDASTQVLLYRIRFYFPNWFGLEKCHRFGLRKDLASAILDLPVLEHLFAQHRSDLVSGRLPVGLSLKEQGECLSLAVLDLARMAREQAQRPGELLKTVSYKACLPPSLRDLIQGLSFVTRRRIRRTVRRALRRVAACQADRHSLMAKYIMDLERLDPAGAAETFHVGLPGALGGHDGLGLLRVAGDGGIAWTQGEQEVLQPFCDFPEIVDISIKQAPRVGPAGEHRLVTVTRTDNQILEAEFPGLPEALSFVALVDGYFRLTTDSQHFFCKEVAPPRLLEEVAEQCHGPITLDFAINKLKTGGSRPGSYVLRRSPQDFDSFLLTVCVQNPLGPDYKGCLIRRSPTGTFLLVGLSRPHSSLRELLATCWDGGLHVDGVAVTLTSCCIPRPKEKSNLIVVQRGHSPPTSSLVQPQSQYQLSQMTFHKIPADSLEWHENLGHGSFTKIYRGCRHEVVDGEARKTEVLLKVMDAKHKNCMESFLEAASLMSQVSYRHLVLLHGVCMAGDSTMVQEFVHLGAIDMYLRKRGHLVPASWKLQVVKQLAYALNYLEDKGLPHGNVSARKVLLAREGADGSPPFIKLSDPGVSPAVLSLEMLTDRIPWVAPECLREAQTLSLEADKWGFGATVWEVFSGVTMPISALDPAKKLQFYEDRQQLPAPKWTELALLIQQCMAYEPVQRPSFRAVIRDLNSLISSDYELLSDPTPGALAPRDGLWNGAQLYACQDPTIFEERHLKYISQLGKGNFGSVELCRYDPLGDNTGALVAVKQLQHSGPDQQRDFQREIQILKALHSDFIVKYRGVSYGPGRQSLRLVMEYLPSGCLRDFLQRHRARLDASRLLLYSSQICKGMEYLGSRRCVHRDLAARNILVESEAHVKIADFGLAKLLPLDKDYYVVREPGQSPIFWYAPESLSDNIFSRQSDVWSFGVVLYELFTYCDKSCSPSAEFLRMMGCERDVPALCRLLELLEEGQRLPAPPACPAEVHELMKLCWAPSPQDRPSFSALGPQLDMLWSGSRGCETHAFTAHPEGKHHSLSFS

[14] = biological target: Epidermal growth factor receptor (Homo sapiens, UniProt P00533); experiment: Inhibition of EGFR (unknown origin)
U2932 = experiment: Growth inhibition of human U2932 cells; type: functional
Ramos [15] = experiment: Growth inhibition of human Ramos cells; type: functional
[16] = biological target: T1, Tyrosine-protein kinase BTK; experiment: Inhibition of BTK (unknown origin) in the presence of ATP
[17] = biological target: T1, Tyrosine-protein kinase BTK; experiment: Competitive inhibition of recombinant human BTK incubated for 10 mins in the presence of ATP by mobility shift assay
OCI-Ly10 = experiment: Antiproliferative activity against human OCILY10 cells assessed as inhibition of cell growth
[18] = Antiproliferative activity against human MINO cells assessed as inhibition of cell growth
A549 = experiment: Antiproliferative activity against human A549 cells assessed as inhibition of cell growth
[19] = biological target: T2, Protein cereblon/Tyrosine-protein kinase BTK; experiment: PROTAC activity at CRBN/BTK C481S mutant in human Ramos cells assessed as decrease in BTK C481S level incubated for 48 hrs by immunoblot analysis; type: cell-based
[20] = biological target: E3 ubiquitin-protein ligase XIAP/Tyrosine-protein kinase BTK (Homo sapiens, UniProt P98170+Q06187); experiment: PROTAC activity at IAP/BTK in human THP-1 cells assessed as reduction in BTK level incubated for 16 hrs by immunoblot analysis; type: cell-based
Sequence of E3 ubiquitin-protein ligase XIAP/Tyrosine-protein kinase BTK (P98170 whole entry): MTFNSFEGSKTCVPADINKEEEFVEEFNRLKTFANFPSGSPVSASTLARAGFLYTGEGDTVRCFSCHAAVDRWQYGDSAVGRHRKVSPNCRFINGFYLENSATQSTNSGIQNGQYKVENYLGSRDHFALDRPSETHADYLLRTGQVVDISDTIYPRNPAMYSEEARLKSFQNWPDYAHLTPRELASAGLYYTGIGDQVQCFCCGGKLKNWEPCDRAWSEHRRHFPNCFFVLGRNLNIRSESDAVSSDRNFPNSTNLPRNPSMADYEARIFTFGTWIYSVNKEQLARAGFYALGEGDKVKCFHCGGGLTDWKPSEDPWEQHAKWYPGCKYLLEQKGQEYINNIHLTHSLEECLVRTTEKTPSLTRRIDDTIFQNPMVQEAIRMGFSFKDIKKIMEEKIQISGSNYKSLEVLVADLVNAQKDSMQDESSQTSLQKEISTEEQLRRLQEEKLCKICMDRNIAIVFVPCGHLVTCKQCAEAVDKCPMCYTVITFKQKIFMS
Sequence of E3 ubiquitin-protein ligase XIAP/Tyrosine-protein kinase BTK (Q06187 whole entry): as the sequence (Q06187 whole entry) above

T1 sequence (Q06187 whole entry): as above
T2 sequence (Q06187 2-659 C481S limits assumed, stated change not applied): as the sequence (Q06187 2-659 limits assumed) above, with C480S counted along it
T2 sequence (Q96SW2 whole entry, stated change not applied): as the sequence (Q96SW2 whole entry) above
Sequence of Tyrosine-protein kinase Lck (P06239 whole entry): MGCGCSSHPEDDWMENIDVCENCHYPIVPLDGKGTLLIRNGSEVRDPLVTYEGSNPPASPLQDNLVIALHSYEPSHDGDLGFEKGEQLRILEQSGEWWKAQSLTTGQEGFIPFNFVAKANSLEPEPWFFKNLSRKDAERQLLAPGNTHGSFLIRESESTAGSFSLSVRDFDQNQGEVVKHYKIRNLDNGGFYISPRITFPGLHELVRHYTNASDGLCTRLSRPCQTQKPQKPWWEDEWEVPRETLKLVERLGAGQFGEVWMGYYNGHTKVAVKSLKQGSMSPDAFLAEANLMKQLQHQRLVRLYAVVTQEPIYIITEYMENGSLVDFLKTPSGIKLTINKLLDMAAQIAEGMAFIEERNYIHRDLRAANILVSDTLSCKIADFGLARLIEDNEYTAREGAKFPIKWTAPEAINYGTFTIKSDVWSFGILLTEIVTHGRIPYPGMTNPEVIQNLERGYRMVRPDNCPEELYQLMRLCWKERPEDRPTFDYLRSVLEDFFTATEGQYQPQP
Sequence of Epidermal growth factor receptor (P00533 whole entry): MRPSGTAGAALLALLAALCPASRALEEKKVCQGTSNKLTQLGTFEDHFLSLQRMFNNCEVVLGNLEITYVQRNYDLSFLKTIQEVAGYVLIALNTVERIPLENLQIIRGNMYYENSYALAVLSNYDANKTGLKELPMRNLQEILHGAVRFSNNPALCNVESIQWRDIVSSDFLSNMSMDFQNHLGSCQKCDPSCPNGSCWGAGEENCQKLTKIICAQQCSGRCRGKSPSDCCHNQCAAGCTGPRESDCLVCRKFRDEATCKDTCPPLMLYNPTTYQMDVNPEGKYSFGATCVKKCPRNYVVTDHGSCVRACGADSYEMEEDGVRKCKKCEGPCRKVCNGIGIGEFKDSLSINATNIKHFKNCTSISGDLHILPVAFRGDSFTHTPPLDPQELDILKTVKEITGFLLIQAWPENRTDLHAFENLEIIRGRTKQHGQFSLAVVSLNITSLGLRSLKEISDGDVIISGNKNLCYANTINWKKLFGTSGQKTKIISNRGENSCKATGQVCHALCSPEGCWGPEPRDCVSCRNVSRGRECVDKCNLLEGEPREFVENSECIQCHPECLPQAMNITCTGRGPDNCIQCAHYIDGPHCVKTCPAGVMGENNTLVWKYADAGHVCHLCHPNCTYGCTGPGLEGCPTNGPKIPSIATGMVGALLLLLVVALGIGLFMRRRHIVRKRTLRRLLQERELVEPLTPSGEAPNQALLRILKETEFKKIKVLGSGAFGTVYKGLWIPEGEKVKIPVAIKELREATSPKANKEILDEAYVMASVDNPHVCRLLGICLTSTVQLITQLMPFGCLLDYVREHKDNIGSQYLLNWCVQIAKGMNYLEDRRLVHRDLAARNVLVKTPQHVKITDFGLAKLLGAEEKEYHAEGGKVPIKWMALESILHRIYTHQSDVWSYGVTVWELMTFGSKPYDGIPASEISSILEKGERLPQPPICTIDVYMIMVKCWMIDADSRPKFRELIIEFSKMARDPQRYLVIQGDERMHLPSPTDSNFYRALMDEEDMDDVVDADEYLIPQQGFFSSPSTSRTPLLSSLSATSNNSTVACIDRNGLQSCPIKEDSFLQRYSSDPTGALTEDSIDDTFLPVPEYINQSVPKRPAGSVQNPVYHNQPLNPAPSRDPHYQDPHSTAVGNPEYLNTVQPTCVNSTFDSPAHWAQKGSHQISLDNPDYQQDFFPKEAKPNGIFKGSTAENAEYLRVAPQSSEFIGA

O=C(c1ccc(Oc2ccccc2)cc1Cl)c1c[nH]c2ncnc(NC3CC[C@@H](CO)OC3)c12 (stereo partly drawn)
pIC50 [1]: 8.41

CN1CCN(c2ccc(Nc3nc(Nc4ccc(F)c(F)c4)c4ncn(CC5CC5)c4n3)cc2)CC1
pIC50 [2]: 4.73

Nc1ncnc2c1c(-c1ccc(Oc3ccccc3)cc1)nn2Cc1ccccc1F
pIC50 [3]: 7.41
pIC50 [4]: 4.95
pIC50 (JeKo-1): 4.48
pIC50 (Z-138): 4.36
pIC50 (Maver1): 4.46

Nc1ncnc2c1c(-c1ccc(Oc3ccccc3)cc1)nn2C1CCCN(C(=O)c2cn(CCOCCOCCOCCCc3cccc4c3CN(C3CCC(=O)NC3=O)C4=O)nn2)C1 (stereo not drawn)
pEC50 [5]: 7.54

Nc1ncnc2c1c(-c1ccc(Oc3ccccc3)cc1)nn2C1CCN(CCOCCOCC(=O)Nc2ccc3c(c2)C(=O)N(C2CCC(=O)NC2=O)C3=O)CC1 (stereo not drawn)
pEC50 [6]: 8.21
Emax [7]: > 99%

Nc1ncnc2c1c(-c1ccc(Oc3ccccc3)cc1)nn2Cc1cccc(NC(=O)CCl)c1
pIC50 (JeKo-1): 6.40
pIC50 (Z-138): 6.10
pIC50 (Maver1): 6.40

C=CC(=O)Nc1cccc(Nc2nc(Nc3ccc(Cn4cc(C)nc4CC)cc3)ncc2Cl)c1
pIC50 (Raji): 5.10
pIC50 (Ramos [8]): 4.97
pIC50 (NAMALVA): 5.31

Cc1cnc(-c2ccc(-c3ccc(NC(=O)Nc4cccc(C(F)(F)F)c4)cc3F)c3c2C(=O)NC3)[nH]1
pIC50 [9]: 7.10

C#C/C(=C\C(C)(C)CCCCOCCOCCOCCOCCOc1cccc2c1C(=O)N(C1CCC(=O)NC1=O)C2=O)C(=O)N1CCCC(n2nc(-c3ccc(Oc4ccccc4)cc3)c3c(N)ncnc32)C1 (stereo not drawn)
pEC50 [10]: 8.00
Emax [11]: 90%

C=CC(=O)NCC(=O)Nc1ncc(NC(=O)c2cc(C)cc(NC(=O)c3cccc(C)c3)c2)cn1
pIC50 [12]: > 8.30
GI50 (OCI-Ly7): 0.22 µM

Nc1ncnc2c1c(-c1ccc(Oc3ccccc3)cc1)nn2C1CCCN(C(=O)CCCCCCCOCCOCCOCCOCCOc2cccc3c2C(=O)N(C2CCC(=O)NC2=O)C3=O)C1 (stereo not drawn)
pEC50 [10]: 8.66
Emax [11]: 97%

C=CC(=O)N1CCc2ccc(N3C(=O)CCc4cnc5ccc(-c6cnn(C)c6)cc5c43)cc21
pIC50 [12]: 8.18
pIC50 [13]: 5.29
pIC50 [14]: 5.37
GI50 (U2932): 0.2 µM
GI50 (Ramos [15]): 0.37 µM

C=CC(=O)Nc1cccc(Cn2nc(-c3ccc(Oc4ccccc4)cc3)c3c(N)ncnc32)c1
pIC50 [3]: 7.30
pIC50 [4]: 5.89
pIC50 (JeKo-1): 5.89
pIC50 (Z-138): 5.55
pIC50 (Maver1): 5.59

Nc1ncnc2c1c(-c1ccc(Oc3ccccc3)nc1)nn2C1CCCN(C(=O)CCl)C1 (stereo not drawn)
pIC50 (JeKo-1): 6.40
pIC50 (Maver1): 6.40

CN1CCN(c2ccc(Nc3nc(Nc4ccccc4)c4ncn(CC5CC5)c4n3)cc2)CC1
pIC50 [16]: 6.05

CN1CCN(c2ccc(Nc3nc(Nc4cccc(F)c4)c4ncn(CC5CC5)c4n3)cc2)CC1
pIC50 [16]: 6.18

Nc1cccc(Cn2nc(-c3ccc(Oc4ccccc4)cc3)c3c(N)ncnc32)c1
pIC50 (JeKo-1): 4.95
pIC50 (Z-138): 4.85
pIC50 (Maver1): 4.77

C=C(Cl)C(=O)N1CCC(n2nc(-c3ccc(Oc4ccccc4)cc3)c3c(N)ncnc32)CC1
pIC50 [17]: 8.60
pIC50 (OCI-Ly10): 6.70
pIC50 [18]: 6.25
pIC50 (A549): 5.41

Nc1ncnc2c1c(-c1ccc(Oc3ccccc3)cc1)nn2[C@@H]1CCCN(C(=O)c2cn(CCOCCOCCOCCNc3cccc4c3C(=O)N(C3CCC(=O)NC3=O)C4=O)nn2)C1 (stereo partly drawn)
pEC50 [19]: 7.52

Nc1ncnc2c1c(-c1ccc(Oc3ccccc3)cc1)nn2C1CCCN(C(=O)/C=C/CCCCCOCCOCCOCCOCCOc2cccc3c2C(=O)N(C2CCC(=O)NC2=O)C3=O)C1 (stereo not drawn)
pEC50 [10]: 8.00
Emax [11]: 90%

CN1CCN(c2ccc(Nc3nc(Nc4ccc(F)cc4)c4ncn(CC5CC5)c4n3)cc2)CC1
pIC50 [16]: 5.89

CN[C@H](C)C(=O)N[C@@H](C(=O)N1C[C@@H](NC(=O)COCCOCCOCCOCCN2CCN(CCCC(=O)N3CCCC(n4nc(-c5ccc(Oc6ccccc6)cc5)c5c(N)ncnc54)C3)CC2)C[C@H]1C(=O)N[C@@H]1CCCc2ccccc21)C1CCCCC1 (stereo partly drawn)
pEC50 [20]: 6.70

CN1CCN(c2ccc(Nc3nc(Nc4cccc(F)c4)c4ncn(CC5CC5)c4n3)cc2F)CC1
pIC50 [16]: 5.74

C=CC(=O)Nc1cccc(Nc2nc(Nc3ccc(Cn4cc(C)nc4CC)cc3)ncc2F)c1
pIC50 (Raji): 5.36
pIC50 (Ramos [8]): 5.03
pIC50 (NAMALVA): 5.31
